According to patent US12398107B2, “Fungicidal nitroanilino substituted pyrazoles” (FMC Corporation, priority 2018, dated 2025):

Experiments:
Format in all cases: in vivo
Septoria tritici = assay: Test A: wheat leaf blotch, preventive spray on wheat seedlings; conditions: 50 ppm, 100 = 100% disease control, 0 = no control relative to controls
How it was run: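 Preventive test: seedlings sprayed to run-off one day before Septoria tritici spore inoculation, with ppm doses in acetone/water containing 250 ppm PEG400. After 48 h at 24 °C in saturated air and 17 days at 20 °C, plants were scored 0–100 for disease control versus untreated controls.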

[1] = test system: Puccinia recondita f. sp. tritici; assay: Test B: wheat leaf rust, preventive spray on wheat seedlings; conditions: 50 ppm, 100 = 100% disease control, 0 = no control relative to controls
How it was run: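 Wheat seedlings got a run-off spray (ppm, acetone/water 50/50, 250 ppm PEG400) and one day later a spore inoculum. After 24 h at 20° C. in saturated air and 7 days at 20° C., disease was scored as % control relative to controls (100 = full control).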

[2] = test system: Blumeria graminis f. sp. tritici; assay: Test C: wheat powdery mildew, preventive spray on wheat seedlings; conditions: 50 ppm, rated after 8 days, 100 = 100% disease control, 0 = no control
How it was run: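 Wheat seedlings got a run-off spray of test suspension (ppm in acetone/water 50/50, 250 ppm PEG400, acetone 3% of volume), then spore-dust inoculation with wheat powdery mildew one day later. After 8 days' growth-chamber incubation at 20° C, disease control scored visually on a 0–100 scale versus untreated controls.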

Phakopsora pachyrhizi = assay: Test D: Asian soybean rust, preventive spray on soybean seedlings; conditions: 50 ppm, 100 = 100% disease control, 0 = no control
How it was run: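 Soybean seedlings sprayed to run-off with compound suspension (ppm, in 50/50 acetone/water with 250 ppm PEG400), inoculated next day with P. pachyrhizi spores, held 24 h saturated at 22°C then 8 days at 22°C. Visual rating 0-100% disease control relative to controls.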

Botrytis cinerea = assay: Test E: tomato Botrytis, preventive spray on tomato seedlings; conditions: 50 ppm, 100 = 100% disease control, 0 = no control
How it was run: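 Preventive test: spore inoculation one day after run-off spraying of compound suspension (3% acetone, acetone/water 50/50, 250 ppm PEG400). Incubation 20 °C saturated humidity for 48 h, followed by 3 days at 24 °C growth chamber; disease control scored visually, 100 = full control.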

Alternaria solani = assay: Test F: tomato early blight, preventive spray on tomato seedlings; conditions: 50 ppm, 100 = 100% disease control, 0 = no control
How it was run: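 Preventive test: one day after seedlings were sprayed to run-off with ppm-level suspensions (acetone/water 50/50, 250 ppm PEG400), A. solani spore inoculation followed. Incubation was 48 h at 27° C in saturated air plus 3 days at 20° C; disease control was scored visually versus controls (100 = full control).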

## Cc1nn(C)c(Nc2c(F)cccc2[N+](=O)[O-])c1-c1ccc(Cl)cc1Cl [Compound 69]
Septoria tritici
  Test A disease control rating (wheat leaf blotch): 100%
[1]
  Test B disease control rating (wheat leaf rust): 100%
[2]
  Test C disease control rating (wheat powdery mildew): 97%
Phakopsora pachyrhizi
  Test D disease control rating (Asian soybean rust): 77%
Botrytis cinerea
  Test E disease control rating (tomato Botrytis): 100%
Alternaria solani
  Test F disease control rating (tomato early blight): 99%

## Cc1cc(Cl)c(Nc2c(-c3ccc(F)cc3Cl)c(C)nn2C)c([N+](=O)[O-])c1 [Compound 31]
Septoria tritici
  Test A disease control rating (wheat leaf blotch): 100%
[1]
  Test B disease control rating (wheat leaf rust): 100%
[2]
  Test C disease control rating (wheat powdery mildew): 100%
Phakopsora pachyrhizi
  Test D disease control rating (Asian soybean rust): 98%
Botrytis cinerea
  Test E disease control rating (tomato Botrytis): 99%
Alternaria solani
  Test F disease control rating (tomato early blight): 76%

## Cc1nn(C)c(Nc2ccc(Cl)cc2[N+](=O)[O-])c1-c1ccc(F)cc1F [Compound 78]
Septoria tritici
  Test A disease control rating (wheat leaf blotch): 100%
[1]
  Test B disease control rating (wheat leaf rust): 89%
[2]
  Test C disease control rating (wheat powdery mildew): 95%
Phakopsora pachyrhizi
  Test D disease control rating (Asian soybean rust): 0%
Botrytis cinerea
  Test E disease control rating (tomato Botrytis): 68%
Alternaria solani
  Test F disease control rating (tomato early blight): 0%

## COc1cc(F)c(-c2c(C)nn(C)c2Nc2c(C)cccc2[N+](=O)[O-])c(F)c1 [Compound 162]
Septoria tritici
  Test A disease control rating (wheat leaf blotch): 100%
[1]
  Test B disease control rating (wheat leaf rust): 100%
[2]
  Test C disease control rating (wheat powdery mildew): 99%
Phakopsora pachyrhizi
  Test D disease control rating (Asian soybean rust): 77%
Botrytis cinerea
  Test E disease control rating (tomato Botrytis): 97%
Alternaria solani
  Test F disease control rating (tomato early blight): 98%

## Cc1nn(C)c(Nc2c(Cl)cccc2[N+](=O)[O-])c1-c1ccc(Cl)cc1Cl [Compound 133]
Septoria tritici
  Test A disease control rating (wheat leaf blotch): 100%
[1]
  Test B disease control rating (wheat leaf rust): 86%
[2]
  Test C disease control rating (wheat powdery mildew): 0%
Phakopsora pachyrhizi
  Test D disease control rating (Asian soybean rust): 0%
Botrytis cinerea
  Test E disease control rating (tomato Botrytis): 97%
Alternaria solani
  Test F disease control rating (tomato early blight): 0%

## Cc1nn(C)c(Nc2cc(F)c(F)cc2[N+](=O)[O-])c1-c1ccc(F)cc1Cl [Compound 32]
Septoria tritici
  Test A disease control rating (wheat leaf blotch): 93%
[1]
  Test B disease control rating (wheat leaf rust): 85%
[2]
  Test C disease control rating (wheat powdery mildew): 56%
Phakopsora pachyrhizi
  Test D disease control rating (Asian soybean rust): 98%
Botrytis cinerea
  Test E disease control rating (tomato Botrytis): 99%
Alternaria solani
  Test F disease control rating (tomato early blight): 0%

## Cc1nn(C)c(Nc2ccc(OC(C)C)cc2[N+](=O)[O-])c1-c1ccc(F)cc1Cl [Compound 104]
Septoria tritici
  Test A disease control rating (wheat leaf blotch): 60%
[1]
  Test B disease control rating (wheat leaf rust): 0%
[2]
  Test C disease control rating (wheat powdery mildew): 72%
Phakopsora pachyrhizi
  Test D disease control rating (Asian soybean rust): 0%
Botrytis cinerea
  Test E disease control rating (tomato Botrytis): 0%
Alternaria solani
  Test F disease control rating (tomato early blight): 0%

## Cc1nn(C)c(Nc2ccccc2[N+](=O)[O-])c1-c1ccc(F)cc1Cl [Compound 126]
Septoria tritici
  Test A disease control rating (wheat leaf blotch): 98%
[1]
  Test B disease control rating (wheat leaf rust): 85%
[2]
  Test C disease control rating (wheat powdery mildew): 96%
Phakopsora pachyrhizi
  Test D disease control rating (Asian soybean rust): 0%
Botrytis cinerea
  Test E disease control rating (tomato Botrytis): 100%
Alternaria solani
  Test F disease control rating (tomato early blight): 68%

## COc1ccc(-c2c(C)nn(C)c2Nc2c(C)cccc2[N+](=O)[O-])c(Cl)c1 [Compound 183]
Septoria tritici
  Test A disease control rating (wheat leaf blotch): 100%
[1]
  Test B disease control rating (wheat leaf rust): 99%
[2]
  Test C disease control rating (wheat powdery mildew): 78%
Phakopsora pachyrhizi
  Test D disease control rating (Asian soybean rust): 0%
Botrytis cinerea
  Test E disease control rating (tomato Botrytis): 100%
Alternaria solani
  Test F disease control rating (tomato early blight): 58%

## Cc1nn(C)c(Nc2c(F)cc(F)cc2[N+](=O)[O-])c1-c1ccc(Cl)cc1F [Compound 13]
Septoria tritici
  Test A disease control rating (wheat leaf blotch): 100%
[1]
  Test B disease control rating (wheat leaf rust): 99%
[2]
  Test C disease control rating (wheat powdery mildew): 97%
Phakopsora pachyrhizi
  Test D disease control rating (Asian soybean rust): 19%
Botrytis cinerea
  Test E disease control rating (tomato Botrytis): 68%
Alternaria solani
  Test F disease control rating (tomato early blight): 89%
